Assay results: patent publication US9777020B2, “Furo-3-carboxamide derivatives and methods of use” (AbbVie Inc., priority 2014, dated 2017)

Target: TrkA (Homo sapiens (Human), UniProt P04629)
Assay: TrkA kinase HTRF enzyme inhibition assay
Format: biochemical
Conditions: TrkA pre-incubated with 200 μM ATP
Method in brief: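 HTRF ratio read-out of biotin-peptide (125 nM) phosphorylation, 1 h reaction after TrkA (2-10 nM) auto-activation with ATP (200 μM) for 20 min and 10 min compound pre-incubation in 50 mM HEPES pH 7.4 with MgCl2/MnCl2. Percent inhibition from initial rates in duplicate, fitted to single-site equation for IC50.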

TrkA, sequence (P04629 33-796): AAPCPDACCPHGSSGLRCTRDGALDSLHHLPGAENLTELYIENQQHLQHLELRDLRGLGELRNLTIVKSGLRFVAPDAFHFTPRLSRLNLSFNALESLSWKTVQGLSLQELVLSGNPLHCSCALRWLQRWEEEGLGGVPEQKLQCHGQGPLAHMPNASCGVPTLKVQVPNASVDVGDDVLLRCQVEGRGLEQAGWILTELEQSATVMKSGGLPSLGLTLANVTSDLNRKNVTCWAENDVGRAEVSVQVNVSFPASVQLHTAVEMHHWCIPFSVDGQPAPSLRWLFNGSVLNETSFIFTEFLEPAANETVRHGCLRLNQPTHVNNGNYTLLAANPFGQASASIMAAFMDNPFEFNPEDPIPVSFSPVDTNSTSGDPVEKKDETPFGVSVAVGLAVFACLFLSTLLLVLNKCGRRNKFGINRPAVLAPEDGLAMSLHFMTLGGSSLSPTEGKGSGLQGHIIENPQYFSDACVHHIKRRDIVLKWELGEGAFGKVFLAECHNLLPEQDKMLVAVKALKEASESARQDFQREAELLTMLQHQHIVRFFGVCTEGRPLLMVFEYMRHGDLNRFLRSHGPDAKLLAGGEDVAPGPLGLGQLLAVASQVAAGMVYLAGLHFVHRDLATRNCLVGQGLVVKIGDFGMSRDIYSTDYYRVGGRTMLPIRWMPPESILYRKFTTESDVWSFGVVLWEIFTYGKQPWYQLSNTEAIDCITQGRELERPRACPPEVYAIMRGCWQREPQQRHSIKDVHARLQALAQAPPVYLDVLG

| SMILES | IC50 [nM] |
| --- | --- |
| CC(C)Oc1nc(N2C[C@H]3CCN[C@H]3C2)ccc1NC(=O)c1coc2c1C(=O)NC(C)(C)C2 [Example 129, N-{6-[(3 aR,6aR)-hexahydropyrrolo[3,4-b]pyrrol-5(1H)-yl]-2-isopropoxypyridin-3-yl}-6,6-dimethyl-4-oxo-4,5,6,7-tetrahydrofuro[3,2-c]pyridine-3-carboxamide] | 10.8 |
| COc1nc(N2CC[C@@H]3CN(C)C[C@@H]32)ccc1NC(=O)c1coc2c1C(=O)NC(C)(C)C2 [Example 130, N-{2-methoxy-6-[(3aR,6aR)-5-methylhexahydropyrrolo[3,4-b]pyrrol-1 (2H)-yl]pyridin-3-yl}-6,6-dimethyl-4-oxo-4,5,6,7-tetrahydrofuro[3,2-c]pyridine-3-carboxamide] | 38.3 |
| CC(C)Oc1nc(N2C[C@@H]3CCN(CCO)[C@@H]3C2)ccc1NC(=O)c1coc2c1C(=O)NC(C)(C)C2 [Example 131, N-{6-[(3aS,6aS)-1-(2-hydroxyethyl)hexahydropyrrolo[3,4-b]pyrrol-5(1H)-yl]-2-isopropoxypyridin-3-yl}-6,6-dimethyl-4-oxo-4,5,6,7-tetrahydrofuro[3,2-c]pyridine-3-carboxamide] | 98.1 |
| CC(C)Oc1nc(N2C[C@H]3CCN(C(=O)N4CCN(C)CC4)[C@H]3C2)ccc1NC(=O)c1coc2c1C(=O)NC(C)(C)C2 [Example 132, N-{2-isopropoxy-6-[(3aR,6aR)-1-[(4-methylpiperazin-1-yl)carbonyl]hexahydropyrrolo[3,4-b]pyrrol-5(1H)-yl]pyridin-3-yl}-6,6-dimethyl-4-oxo-4,5,6,7-tetrahydrofuro[3,2-c]pyridine-3-carboxamide] | 6.9 |
| CC(=O)N1CCN(c2ccc(NC(=O)c3coc4c3C(=O)NC(C)(C)C4)c(OC(C)C)n2)C[C@H]1CO [Example 133, N-{6-[(3S)-4-acetyl-3-(hydroxymethyl)piperazin-1-yl]-2-isopropoxypyridin-3-yl}-6,6-dimethyl-4-oxo-4,5,6,7-tetrahydrofuro[3,2-c]pyridine-3-carboxamide] | 3.3 |
| CC(=O)N1CCN(c2ccc(NC(=O)c3coc4c3C(=O)NC(C)(C)C4)c(OC(C)C)n2)[C@H](CO)C1 [Example 134, N-{6-[(2S)-4-acetyl-2-(hydroxymethyl)piperazin-1-yl]-2-isopropoxypyridin-3-yl}-6,6-dimethyl-4-oxo-4,5,6,7-tetrahydrofuro[3,2-c]pyridine-3-carboxamide] | 3.9 |
| CC(C)Oc1nc(N2CCN(C(=O)N3CCOCC3)C[C@H]2CO)ccc1NC(=O)c1coc2c1C(=O)NC(C)(C)C2 [Example 135, N-{6-[(2S)-2-(hydroxymethyl)-4-(morpholin-4-ylcarbonyl)piperazin-1-yl]-2-isopropoxypyridin-3-yl}-6,6-dimethyl-4-oxo-4,5,6,7-tetrahydrofuro[3,2-c]pyridine-3-carboxamide] | 2.3 |
| CC(C)Oc1nc(N2CC[C@H](N(C)C)C2)ccc1NC(=O)c1coc2c1C(=O)NC(C)(C)C2 [Example 136, N-{6-[(3S)-3-(dimethylamino)pyrrolidin-1-yl]-2-isopropoxypyridin-3-yl}-6,6-dimethyl-4-oxo-4,5,6,7-tetrahydrofuro[3,2-c]pyridine-3-carboxamide] | 10.2 |
| CC(C)Oc1nc(N2CCC[C@H](CO)C2)ccc1NC(=O)c1coc2c1C(=O)NC(C)(C)C2 [Example 137, N-{6-[(3S)-3-(hydroxymethyl)piperidin-1-yl]-2-isopropoxypyridin-3-yl}-6,6-dimethyl-4-oxo-4,5,6,7-tetrahydrofuro[3,2-c]pyridine-3-carboxamide] | 13.3 |
| CC(=O)N1CCN(c2ccc(NC(=O)c3coc4c3C(=O)NC(C)(C)C4)c(OC(C)C)n2)C[C@@H]1CO [Example 138, N-{6-[(3R)-4-acetyl-3-(hydroxymethyl)piperazin-1-yl]-2-isopropoxypyridin-3-yl}-6,6-dimethyl-4-oxo-4,5,6,7-tetrahydrofuro[3,2-c]pyridine-3-carboxamide] | 6.3 |
| CC(=O)N1CCN(c2ccc(NC(=O)c3coc4c3C(=O)NC(C)(C)C4)c(OC(C)C)n2)[C@@H](CO)C1 [Example 139, N-{6-[(2R)-4-acetyl-2-(hydroxymethyl)piperazin-1-yl]-2-isopropoxypyridin-3-yl}-6,6-dimethyl-4-oxo-4,5,6,7-tetrahydrofuro[3,2-c]pyridine-3-carboxamide] | 2.4 |
| CC(C)Oc1nc(N(CCO)CCO)ccc1NC(=O)c1coc2c1C(=O)NC(C)(C)C2 [Example 140, N-{6-[bis(2-hydroxyethyl)amino]-2-isopropoxypyridin-3-yl}-6,6-dimethyl-4-oxo-4,5,6,7-tetrahydrofuro[3,2-c]pyridine-3-carboxamide] | 10.5 |
| COCCOc1ccc(NC(=O)c2coc3c2C(=O)NC(C)(C)C3)c(OCCOC)n1 [Example 141, N-[2,6-bis(2-methoxyethoxy)pyridin-3-yl]-6,6-dimethyl-4-oxo-4,5,6,7-tetrahydrofuro[3,2-c]pyridine-3-carboxamide] | 60.1 |
| COC[C@@H]1CN(c2ccc(NC(=O)c3coc4c3C(=O)NC(C)(C)C4)c(OCC(C)(C)O)n2)CCN1C(C)=O [Example 142, N-{6-[(3S)-4-acetyl-3-(methoxymethyl)piperazin-1-yl]-2-(2-hydroxy-2-methylpropoxy)pyridin-3-yl}-6,6-dimethyl-4-oxo-4,5,6,7-tetrahydrofuro[3,2-c]pyridine-3-carboxamide] | 1.8 |
| CCOc1nc(CCO)ccc1NC(=O)c1coc2c1C(=O)NC(C)(C)C2 [Example 143, N-[2-ethoxy-6-(2-hydroxyethyl)pyridin-3-yl]-6,6-dimethyl-4-oxo-4,5,6,7-tetrahydrofuro[3,2-c]pyridine-3-carboxamide] | 24.6 |
| CCOc1nc(CO)ccc1NC(=O)c1coc2c1C(=O)NC(C)(C)C2 [Example 144, N-[2-ethoxy-6-(hydroxymethyl)pyridin-3-yl]-6,6-dimethyl-4-oxo-4,5,6,7-tetrahydrofuro[3,2-c]pyridine-3-carboxamide] | 49.2 |
| CCOc1nc(C(=O)O)ccc1NC(=O)c1coc2c1C(=O)N(CCOC)C(C)(C)C2 [Example 145, 6-ethoxy-5-({[5-(2-methoxyethyl)-6,6-dimethyl-4-oxo-4,5,6,7-tetrahydrofuro[3,2-c]pyridin-3-yl]carbonyl}amino)pyridine-2-carboxylic acid] | 7.9 |
| Cn1ncc2cc(NC(=O)c3coc4c3C(=O)CC(C)(C)C4)ccc21 [Example 146, 6,6-dimethyl-N-(1-methyl-1H-indazol-5-yl)-4-oxo-4,5,6,7-tetrahydro-1-benzofuran-3-carboxamide] | 34.1 |
| CC(=O)N1CCN(c2ccc(NC(=O)c3coc4c3C(=O)CC(C)(C)C4)cc2)CC1 [Example 148, N-[4-(4-acetylpiperazin-1-yl)phenyl]-6,6-dimethyl-4-oxo-4,5,6,7-tetrahydro-1-benzofuran-3-carboxamide] | 32.4 |
| CC1(C)CC(=O)c2c(C(=O)Nc3ccc(N4CCNCC4)nc3)coc2C1 [Example 149, 6,6-dimethyl-4-oxo-N-[6-(piperazin-1-yl)pyridin-3-yl]-4,5,6,7-tetrahydro-1-benzofuran-3-carboxamide] | 135 |
| Cn1cc2cc(NC(=O)c3coc4c3C(=O)CC3(CCC3)C4)ccc2n1 [Example 150, N-(2-methyl-2H-indazol-5-yl)-4-oxo-4,7-dihydro-5H-spiro[1-benzofuran-6,1′-cyclobutane]-3-carboxamide] | 43.2 |
| CC1(C)CC(=O)c2c(C(=O)Nc3ccc(N4CCNCC4)cn3)coc2C1 [Example 151, 6,6-dimethyl-4-oxo-N-[5-(piperazin-1-yl)pyridin-2-yl]-4,5,6,7-tetrahydro-1-benzofuran-3-carboxamide] | 63.4 |
| CC1(C)CC(=O)c2c(C(=O)Nc3ccc(N4CCN(S(C)(=O)=O)CC4)cc3)coc2C1 [Example 152, 6,6-dimethyl-N-{4-[4-(methylsulfonyl)piperazin-1-yl]phenyl}-4-oxo-4,5,6,7-tetrahydro-1-benzofuran-3-carboxamide] | 35.8 |
| CC1(C)CC(=O)c2c(C(=O)Nc3ccc4nn(CCO)cc4c3)coc2C1 [Example 153, N-[2-(2-hydroxyethyl)-2H-indazol-5-yl]-6,6-dimethyl-4-oxo-4,5,6,7-tetrahydro-1-benzofuran-3-carboxamide] | 45.6 |
| CC1(C)CC(=O)c2c(C(=O)Nc3ccc4[nH]c(CO)nc4c3)coc2C1 [Example 154, N-[2-(hydroxymethyl)-1H-benzimidazol-5-yl]-6,6-dimethyl-4-oxo-4,5,6,7-tetrahydro-1-benzofuran-3-carboxamide] | 74 |
| CC1(C)CC(=O)c2c(C(=O)Nc3ccc(N4CCN(S(C)(=O)=O)CC4)cn3)coc2C1 [Example 155, 6,6-dimethyl-N-{5-[4-(methylsulfonyl)piperazin-1-yl]pyridin-2-yl}-4-oxo-4,5,6,7-tetrahydro-1-benzofuran-3-carboxamide] | 54.8 |
| CC(=O)N1CCN(c2ccc(NC(=O)c3coc4c3C(=O)CC(C)(C)C4)nc2)CC1 [Example 156, N-[5-(4-acetylpiperazin-1-yl)pyridin-2-yl]-6,6-dimethyl-4-oxo-4,5,6,7-tetrahydro-1-benzofuran-3-carboxamide] | 46.7 |
| COc1cc(N2CCNCC2)ccc1NC(=O)c1coc2c1C(=O)CC(C)(C)C2 [Example 157, N-[2-methoxy-4-(piperazin-1-yl)phenyl]-6,6-dimethyl-4-oxo-4,5,6,7-tetrahydro-1-benzofuran-3-carboxamide] | 6.4 |
| COc1cc(N2CCN(C(C)=O)CC2)ccc1NC(=O)c1coc2c1C(=O)CC(C)(C)C2 [Example 158, N-[4-(4-acetylpiperazin-1-yl)-2-methoxyphenyl]-6,6-dimethyl-4-oxo-4,5,6,7-tetrahydro-1-benzofuran-3-carboxamide] | 4.2 |
| Cn1cc2cc(NC(=O)c3coc4c3C(=O)CC3(CC3)C4)ccc2n1 [Example 159, N-(2-methyl-2H-indazol-5-yl)-4-oxo-4,7-dihydro-5H-spiro[1-benzofuran-6,1′-cyclopropane]-3-carboxamide] | 10.3 |
